Reference: paper PMC5448077, “Development of an orally available inhibitor of CLK1 for skipping a mutated dystrophin exon in Duchenne muscular dystrophy” (Scientific Reports, 2017)

How the values were obtained:
Assay in all cases: biochemical
[1] = target: RET(S891A) (Homo sapiens, UniProt P07949, S891A)
Summary of the method: (§1)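 Reactions at room temperature in HEPES buffer (20 mM, pH 7.5, 0.01% Triton X-100, 2 mM DTT) lasted 1 or 5 h depending on kinase, with substrate peptide and ATP-metal. Phosphorylation read by electrophoretic mobility shift or IMAP polarization; kinase activity computed as P/(P + S).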

[2] = target: T1, ABL(T315I) (Homo sapiens, UniProt P00519, T315I)
T1 construct: gene ABL1
Summary of the method: as §1

[3] = target: FLT4 (Homo sapiens, UniProt P35916)
Summary of the method: as §1

[4] = target: T2, PKCδ (Homo sapiens, UniProt Q05655)
T2 construct: gene PRKCD
T2 sequence (Q05655 whole entry): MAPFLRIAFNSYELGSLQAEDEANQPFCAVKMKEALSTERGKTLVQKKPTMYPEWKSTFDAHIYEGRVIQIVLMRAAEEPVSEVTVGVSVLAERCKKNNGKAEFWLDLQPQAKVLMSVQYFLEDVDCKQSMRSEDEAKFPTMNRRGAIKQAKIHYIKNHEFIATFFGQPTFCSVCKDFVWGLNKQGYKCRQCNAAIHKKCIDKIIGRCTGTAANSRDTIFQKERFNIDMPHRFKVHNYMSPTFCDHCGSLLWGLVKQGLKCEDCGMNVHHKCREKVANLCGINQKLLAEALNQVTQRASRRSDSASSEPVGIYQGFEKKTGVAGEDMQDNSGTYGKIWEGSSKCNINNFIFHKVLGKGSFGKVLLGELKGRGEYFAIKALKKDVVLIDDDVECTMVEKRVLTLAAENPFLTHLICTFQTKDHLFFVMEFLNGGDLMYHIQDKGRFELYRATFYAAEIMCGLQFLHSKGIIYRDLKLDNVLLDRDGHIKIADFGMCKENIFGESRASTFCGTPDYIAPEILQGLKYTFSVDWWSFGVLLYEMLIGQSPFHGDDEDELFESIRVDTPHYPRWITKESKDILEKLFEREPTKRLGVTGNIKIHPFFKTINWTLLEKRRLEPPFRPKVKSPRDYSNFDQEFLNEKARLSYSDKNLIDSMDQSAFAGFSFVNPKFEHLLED
Summary of the method: as §1

[5] = target: SRPK1 (Homo sapiens, UniProt Q96SB4)
Summary of the method: as §1

[6] = target: FGFR1(V561M) (Homo sapiens, UniProt P11362, V561M)
FGFR1(V561M), sequence (P11362 whole entry V561M): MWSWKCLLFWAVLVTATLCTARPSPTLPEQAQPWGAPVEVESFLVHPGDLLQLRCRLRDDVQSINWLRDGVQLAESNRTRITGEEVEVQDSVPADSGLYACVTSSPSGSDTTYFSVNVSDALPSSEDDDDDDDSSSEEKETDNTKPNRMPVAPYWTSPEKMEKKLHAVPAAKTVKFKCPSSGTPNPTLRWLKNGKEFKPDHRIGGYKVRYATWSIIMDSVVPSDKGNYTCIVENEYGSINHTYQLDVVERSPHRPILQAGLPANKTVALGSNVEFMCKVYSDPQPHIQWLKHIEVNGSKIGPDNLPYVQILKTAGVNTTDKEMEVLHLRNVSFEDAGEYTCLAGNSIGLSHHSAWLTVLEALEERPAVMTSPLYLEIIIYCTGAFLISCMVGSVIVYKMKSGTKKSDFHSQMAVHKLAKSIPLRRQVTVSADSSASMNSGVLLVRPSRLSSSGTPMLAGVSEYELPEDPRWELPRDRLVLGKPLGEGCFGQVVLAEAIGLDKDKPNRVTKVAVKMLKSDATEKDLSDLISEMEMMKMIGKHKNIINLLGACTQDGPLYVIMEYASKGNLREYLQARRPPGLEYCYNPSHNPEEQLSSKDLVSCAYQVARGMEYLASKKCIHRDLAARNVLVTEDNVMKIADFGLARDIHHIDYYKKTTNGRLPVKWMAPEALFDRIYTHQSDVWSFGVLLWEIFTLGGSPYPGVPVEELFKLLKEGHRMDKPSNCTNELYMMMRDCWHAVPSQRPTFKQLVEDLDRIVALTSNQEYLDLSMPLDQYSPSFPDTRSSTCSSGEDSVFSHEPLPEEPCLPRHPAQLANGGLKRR
Summary of the method: as §1

[7] = target: T3, PEK (Homo sapiens, UniProt Q9NZJ5)
T3 construct: gene EIF2AK3
Summary of the method: as §1

[8] = target: T4, p38δ (Homo sapiens, UniProt O15264)
T4 construct: gene MAPK13
Summary of the method: as §1

[9] = target: T5, YES (Homo sapiens, UniProt P07947)
T5 construct: gene YES1
T5 sequence (P07947 whole entry): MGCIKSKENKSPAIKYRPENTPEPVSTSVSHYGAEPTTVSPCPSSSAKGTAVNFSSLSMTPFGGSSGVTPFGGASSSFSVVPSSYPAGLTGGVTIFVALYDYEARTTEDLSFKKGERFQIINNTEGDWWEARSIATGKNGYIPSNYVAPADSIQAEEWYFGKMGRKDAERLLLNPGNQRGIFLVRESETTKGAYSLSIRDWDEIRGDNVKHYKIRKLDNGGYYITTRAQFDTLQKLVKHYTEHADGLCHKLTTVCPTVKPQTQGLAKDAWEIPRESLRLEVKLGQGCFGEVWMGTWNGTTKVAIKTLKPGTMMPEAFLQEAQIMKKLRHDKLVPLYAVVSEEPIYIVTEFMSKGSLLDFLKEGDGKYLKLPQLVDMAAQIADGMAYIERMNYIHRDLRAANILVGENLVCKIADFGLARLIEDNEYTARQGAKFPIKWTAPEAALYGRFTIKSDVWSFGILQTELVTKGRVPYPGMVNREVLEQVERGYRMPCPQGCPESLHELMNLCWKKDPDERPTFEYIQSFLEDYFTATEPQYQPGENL
Summary of the method: as §1

[10] = target: DYRK1A (Homo sapiens, UniProt Q13627)
Summary of the method: as §1

[11] = target: PIM1 (Homo sapiens, UniProt P11309)
PIM1, sequence (P11309 whole entry): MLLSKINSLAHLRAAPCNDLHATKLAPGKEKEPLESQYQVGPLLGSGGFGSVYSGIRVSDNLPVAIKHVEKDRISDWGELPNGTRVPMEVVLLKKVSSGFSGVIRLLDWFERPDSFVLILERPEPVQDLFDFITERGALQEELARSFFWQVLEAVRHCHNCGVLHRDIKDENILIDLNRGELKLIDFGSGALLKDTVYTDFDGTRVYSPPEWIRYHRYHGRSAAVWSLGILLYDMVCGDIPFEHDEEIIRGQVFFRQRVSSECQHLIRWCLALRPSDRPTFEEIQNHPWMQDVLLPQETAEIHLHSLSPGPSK
Summary of the method: as §1

[12] = target: T6, CaMK2δ (Homo sapiens, UniProt Q13557)
T6 construct: gene CAMK2D
T6 sequence (Q13557 whole entry): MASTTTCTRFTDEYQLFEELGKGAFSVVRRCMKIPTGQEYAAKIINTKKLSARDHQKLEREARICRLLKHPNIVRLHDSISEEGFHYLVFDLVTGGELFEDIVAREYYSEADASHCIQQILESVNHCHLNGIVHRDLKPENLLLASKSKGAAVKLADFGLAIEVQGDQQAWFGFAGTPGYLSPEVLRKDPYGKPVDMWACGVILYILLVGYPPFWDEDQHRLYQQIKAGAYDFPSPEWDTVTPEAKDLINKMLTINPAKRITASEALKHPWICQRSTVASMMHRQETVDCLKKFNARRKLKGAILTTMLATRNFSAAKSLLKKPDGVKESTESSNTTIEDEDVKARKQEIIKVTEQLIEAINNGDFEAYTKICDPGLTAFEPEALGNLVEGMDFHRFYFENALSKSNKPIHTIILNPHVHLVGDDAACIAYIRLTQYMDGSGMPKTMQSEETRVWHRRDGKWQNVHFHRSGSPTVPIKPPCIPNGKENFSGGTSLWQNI
Summary of the method: as §1

[13] = target: PIK3CA/PIK3R1 (Homo sapiens, UniProt P42336)
Summary of the method: as §1

[14] = target: MAPKAPK3 (Homo sapiens, UniProt Q16644)
MAPKAPK3, sequence (Q16644 whole entry): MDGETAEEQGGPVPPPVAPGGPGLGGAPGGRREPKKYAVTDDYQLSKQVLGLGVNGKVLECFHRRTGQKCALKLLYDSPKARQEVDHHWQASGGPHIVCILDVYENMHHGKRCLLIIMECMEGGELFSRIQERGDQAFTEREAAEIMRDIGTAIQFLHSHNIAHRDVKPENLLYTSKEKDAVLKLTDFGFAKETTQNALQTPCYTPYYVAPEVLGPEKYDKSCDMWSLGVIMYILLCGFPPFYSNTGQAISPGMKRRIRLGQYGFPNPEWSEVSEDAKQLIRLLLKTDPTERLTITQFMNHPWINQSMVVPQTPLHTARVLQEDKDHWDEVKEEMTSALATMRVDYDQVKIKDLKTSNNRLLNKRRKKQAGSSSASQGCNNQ
Summary of the method: as §1

[15] = target: AKT1 (Homo sapiens, UniProt P31749)
AKT1, sequence (P31749 whole entry): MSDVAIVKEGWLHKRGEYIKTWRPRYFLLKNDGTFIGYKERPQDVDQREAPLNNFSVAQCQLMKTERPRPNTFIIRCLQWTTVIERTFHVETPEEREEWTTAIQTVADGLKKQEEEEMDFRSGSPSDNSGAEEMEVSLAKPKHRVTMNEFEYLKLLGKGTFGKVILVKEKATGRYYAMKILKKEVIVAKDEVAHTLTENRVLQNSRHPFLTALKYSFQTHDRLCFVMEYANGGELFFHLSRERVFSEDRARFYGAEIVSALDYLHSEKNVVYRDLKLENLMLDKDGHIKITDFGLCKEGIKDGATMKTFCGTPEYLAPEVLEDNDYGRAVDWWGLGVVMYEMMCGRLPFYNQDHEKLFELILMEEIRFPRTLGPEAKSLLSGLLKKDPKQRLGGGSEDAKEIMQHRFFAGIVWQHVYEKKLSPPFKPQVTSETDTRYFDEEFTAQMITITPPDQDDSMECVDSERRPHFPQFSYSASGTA
Summary of the method: as §1

[16] = target: KIT(T670I) (Homo sapiens, UniProt P10721, T670I)
Summary of the method: as §1

[17] = target: EPHA8 (Homo sapiens, UniProt P29322)
Summary of the method: as §1

[18] = target: MARK3 (Homo sapiens, UniProt P27448)
Summary of the method: as §1

[19] = target: PAK2 (Homo sapiens, UniProt Q13177)
Summary of the method: as §1

[20] = target: ALK(F1174L) (Homo sapiens, UniProt Q9UM73, F1174L)
Summary of the method: as §1

[21] = target: CDK9/CycT1 (Homo sapiens, UniProt P50750)
Summary of the method: as §1

[22] = target: T7, MER (Homo sapiens, UniProt Q12866)
T7 construct: gene MERTK
Summary of the method: as §1

[23] = target: T8, PKACγ (Homo sapiens, UniProt P22612)
T8 construct: gene PRKACG
Summary of the method: as §1

[24] = target: T9, PKCβ2 (Homo sapiens, UniProt P05771)
T9 construct: gene PRKCB; isoform beta2
Summary of the method: as §1

[25] = target: T10, RSK4 (Homo sapiens, UniProt Q9UK32)
T10 construct: gene RPS6KA6
Summary of the method: as §1

[26] = target: T11, CaMK2β (Homo sapiens, UniProt Q13554)
T11 construct: gene CAMK2B
T11 sequence (Q13554 whole entry): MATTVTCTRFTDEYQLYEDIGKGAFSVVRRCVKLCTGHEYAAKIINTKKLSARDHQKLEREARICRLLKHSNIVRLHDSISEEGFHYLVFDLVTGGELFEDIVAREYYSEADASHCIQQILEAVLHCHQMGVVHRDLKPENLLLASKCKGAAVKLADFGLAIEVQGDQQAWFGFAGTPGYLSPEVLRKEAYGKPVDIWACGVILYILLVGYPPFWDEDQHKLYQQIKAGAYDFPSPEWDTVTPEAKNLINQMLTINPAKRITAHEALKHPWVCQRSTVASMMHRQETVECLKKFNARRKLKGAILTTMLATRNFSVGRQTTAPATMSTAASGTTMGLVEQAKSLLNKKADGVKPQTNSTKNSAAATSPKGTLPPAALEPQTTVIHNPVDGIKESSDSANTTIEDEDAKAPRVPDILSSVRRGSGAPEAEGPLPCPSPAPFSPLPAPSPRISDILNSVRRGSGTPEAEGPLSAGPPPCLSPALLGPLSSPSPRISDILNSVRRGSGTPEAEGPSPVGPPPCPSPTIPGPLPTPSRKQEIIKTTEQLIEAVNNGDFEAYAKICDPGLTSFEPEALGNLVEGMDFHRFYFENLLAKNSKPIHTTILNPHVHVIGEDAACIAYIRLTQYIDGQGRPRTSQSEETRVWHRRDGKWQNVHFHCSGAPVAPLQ
Summary of the method: as §1

[27] = target: PBK (Homo sapiens, UniProt Q96KB5)
Summary of the method: as §1

[28] = target: T12, HER4 (Homo sapiens, UniProt Q15303)
T12 construct: gene ERBB4
Summary of the method: as §1

[29] = target: T13, FMS (Homo sapiens, UniProt P07333)
T13 construct: gene CSF1R
Summary of the method: as §1

[30] = target: DYRK2 (Homo sapiens, UniProt Q92630)
DYRK2, sequence (Q92630 whole entry): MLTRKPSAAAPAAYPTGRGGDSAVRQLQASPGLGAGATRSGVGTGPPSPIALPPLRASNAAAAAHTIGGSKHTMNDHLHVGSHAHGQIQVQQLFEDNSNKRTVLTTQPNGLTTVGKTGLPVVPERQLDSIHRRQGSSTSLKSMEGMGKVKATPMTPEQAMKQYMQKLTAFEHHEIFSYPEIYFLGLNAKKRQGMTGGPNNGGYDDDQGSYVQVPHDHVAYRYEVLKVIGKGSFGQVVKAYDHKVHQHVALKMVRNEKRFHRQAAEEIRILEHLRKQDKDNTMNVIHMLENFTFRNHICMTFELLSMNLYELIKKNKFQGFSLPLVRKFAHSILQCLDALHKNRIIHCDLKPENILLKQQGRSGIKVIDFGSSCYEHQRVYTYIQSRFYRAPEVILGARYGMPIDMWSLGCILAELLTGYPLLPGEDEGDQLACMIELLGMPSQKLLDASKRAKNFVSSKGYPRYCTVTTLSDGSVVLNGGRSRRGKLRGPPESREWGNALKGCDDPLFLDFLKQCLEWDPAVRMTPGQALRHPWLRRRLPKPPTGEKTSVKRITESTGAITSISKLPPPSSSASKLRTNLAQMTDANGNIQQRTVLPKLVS
Summary of the method: as §1

## c1cc(-c2ccc3[nH]ncc3c2)ccn1 [TG693, 5-(4-pyridinyl)-1H-indazole]
[1]
  inhibition at 1 µM: -18%
[2]
  inhibition at 1 µM: 6.5%
[3]
  inhibition at 1 µM: -0.3%
[4]
  inhibition at 1 µM: 1.5%
[5]
  inhibition at 1 µM: 0.6%
[6]
  inhibition at 1 µM: -11.6%
[7]
  inhibition at 1 µM: 5%
[8]
  inhibition at 1 µM: -0.7%
[9]
  inhibition at 1 µM: -9.6%
[10]
  inhibition at 1 µM: 84.3%
[11]
  inhibition at 1 µM: 1.2%
[12]
  inhibition at 1 µM: 1.4%
[13]
  inhibition at 1 µM: 36.8%
[14]
  inhibition at 1 µM: -13.1%
[15]
  inhibition at 1 µM: -1.3%
[16]
  inhibition at 1 µM: -0.7%
[17]
  inhibition at 1 µM: 7.3%
[18]
  inhibition at 1 µM: 15.5%
[19]
  inhibition at 1 µM: -51.3%
[20]
  inhibition at 1 µM: -6.9%
[21]
  inhibition at 1 µM: 57.8%
[22]
  inhibition at 1 µM: 3%
[23]
  inhibition at 1 µM: 1.5%
[24]
  inhibition at 1 µM: -11.8%
[25]
  inhibition at 1 µM: -6.5%
[26]
  inhibition at 1 µM: 2.8%
[27]
  inhibition at 1 µM: -3.5%
[28]
  inhibition at 1 µM: 5.8%
[29]
  inhibition at 1 µM: 2.6%
[30]
  inhibition at 1 µM: 77.2%
